This passage reports T/C results from PubChem BioAssay AID274 (DTP/NCI, 2004).

Several values for one entry are separate records, joined by “and”; a condition that tells them apart may be missing. Identical values can stand only once. Inconclusive results and toxic doses are left out.

The subject of the experiment is BDF1 mice, Lewis lung carcinoma iv, survival T/C. Nature of the experiment: NCI In Vivo Anticancer Drug Screen. Data for tumor model Lewis Lung Carcinoma (intravenous) in B6D2F1 (BDF1) mice. The following applies: endpoint: median survival time, higher = longer survival. Here is the method:
The antitumor activity of compounds was measured in mice bearing transplantable tumors. Survival or tumor size were measured and the results are expressed as the measurement made in the treated group (T) divided by the measurement made in the vehicle treated control group (C). The tumor model used in this assay is Lewis Lung Carcinoma (intravenous) in B6D2F1 (BDF1) mice

Setting [1] is: dose: 12.5 mg/kg/injection, schedule: Q01DX009 (ip), vehicle: saline with Tween-80.
Where [2] appears, read: dose: 25.0 mg/kg/injection, schedule: Q01DX009 (ip), vehicle: saline with Tween-80.
Setting [3] is: dose: 50.0 mg/kg/injection, schedule: Q01DX009 (ip), vehicle: saline with Tween-80.
The mark [4] stands for this setting: dose: 100.0 mg/kg/injection, schedule: Q01DX009 (ip), vehicle: saline with Tween-80.
The mark [5] stands for this setting: dose: 200.0 mg/kg/injection, schedule: Q01DX009 (ip), vehicle: saline with Tween-80.
Where [6] appears, read: dose: 400.0 mg/kg/injection, schedule: Q01DX009 (ip), vehicle: saline with Tween-80.
Where [7] appears, read: dose: 12.5 mg/kg/injection, schedule: Q01DX009 (ip), vehicle: saline.
[8] abbreviates: dose: 25.0 mg/kg/injection, schedule: Q01DX009 (ip), vehicle: saline.
Where [9] appears, read: dose: 50.0 mg/kg/injection, schedule: Q01DX009 (ip), vehicle: saline.
Setting [10] is: dose: 100.0 mg/kg/injection, schedule: Q01DX009 (ip), vehicle: saline.
The mark [11] stands for this setting: dose: 200.0 mg/kg/injection, schedule: Q01DX009 (ip), vehicle: saline.
Where [12] appears, read: dose: 8.0 mg/kg/injection, schedule: Q01DX009 (ip), vehicle: Klucel (hydroxypropylcellulose) (HPC).
Setting [13] is: dose: 16.0 mg/kg/injection, schedule: Q01DX009 (ip), vehicle: Klucel (hydroxypropylcellulose) (HPC).
[14] abbreviates: dose: 32.0 mg/kg/injection, schedule: Q01DX009 (ip), vehicle: Klucel (hydroxypropylcellulose) (HPC).
Setting [15] is: dose: 3.12 mg/kg/injection, schedule: Q01DX009 (ip), vehicle: saline.
The mark [16] stands for this setting: dose: 6.25 mg/kg/injection, schedule: Q01DX009 (ip), vehicle: saline.
Setting [17] is: dose: 50.0 mg/kg/injection, schedule: Q01DX009 (ip), vehicle: Klucel (hydroxypropylcellulose) (HPC).
[18] abbreviates: dose: 64.0 mg/kg/injection, schedule: Q01DX009 (ip), vehicle: Klucel (hydroxypropylcellulose) (HPC).

As for `O=C(Nc1nncs1)c1cccs1`, the T/C was 95 % of control under setting [1]; 104 % of control under setting [2]; 92 % of control under setting [3]; 94 % of control under setting [4]; 98 % of control under setting [5]; 95 % of control under setting [6].
As to `OCC1(CO)COC2(CCCCC2)N1`, the T/C by setting is: under setting [7], 102 % of control; under setting [8], 100 % of control; under setting [9], 102 % of control; under setting [10], 100 % of control; under setting [11], 101 % of control; (dose: 400.0 mg/kg/injection, schedule: Q01DX009 (ip), vehicle: saline) 103 % of control.
In the case of `O=NN(CCCl)C(=O)NC1CCCCC1`, the T/C by setting is: (dose: 1.0 mg/kg/injection, schedule: Q01DX009 (ip), vehicle: Klucel (hydroxypropylcellulose) (HPC)) 106 % of control; (dose: 2.0 mg/kg/injection, schedule: Q01DX009 (ip), vehicle: Klucel (hydroxypropylcellulose) (HPC)) 108 % of control; (dose: 4.0 mg/kg/injection, schedule: Q01DX009 (ip), vehicle: Klucel (hydroxypropylcellulose) (HPC)) 120 % of control; under setting [12], 213 % of control; under setting [13], 118 % of control; under setting [14], 93 % of control.
With `O=C1NC(O)c2ccccc2O1` (stereo unspecified), the T/C is 108 % of control under setting [1]; 103 % of control under setting [2]; 105 % of control under setting [3]; 101 % of control under setting [4]; 112 % of control under setting [5]; 102 % of control under setting [6].
`[CH3][Sn]([CH3])([Cl])[S]CCN`: the T/C is, setting by setting: under setting [15], 91 % of control; under setting [16], 95 % of control; under setting [7], 97 % of control; under setting [8], 91 % of control.
With `CNC(=O)c1cccc2c(Nc3ccc(NS(C)(=O)=O)cc3OC)c3cccc(C)c3nc12`, the T/C was 100 % of control (dose: 0.39 mg/kg/injection, schedule: Q01DX009 (ip), vehicle: water); 112 % of control (dose: 1.56 mg/kg/injection, schedule: Q01DX009 (ip), vehicle: water); 89 % of control (dose: 3.12 mg/kg/injection, schedule: Q01DX009 (ip), vehicle: water).
On to `O=C(Nc1cccc(Cl)c1)ON1C(=O)C2C(C1=O)C1(Cl)C(Cl)C(Cl)C2(Cl)C1(Cl)Cl` (stereo unspecified), for which the T/C under setting [3] was 98 % of control and the T/C under setting [5] was 87 % of control.
Consider `O=C(N/N=C/c1ccccc1O)c1ccncc1`, for which the T/C runs as follows: (dose: 108.0 mg/kg/injection, schedule: Q01DX007 (ip), vehicle: Klucel (hydroxypropylcellulose) (HPC)) 95 % of control; (dose: 154.4 mg/kg/injection, schedule: Q01DX007 (ip), vehicle: Klucel (hydroxypropylcellulose) (HPC)) 99 % of control; (dose: 220.5 mg/kg/injection, schedule: Q01DX007 (ip), vehicle: Klucel (hydroxypropylcellulose) (HPC)) 89 % of control; (dose: 315.0 mg/kg/injection, schedule: Q01DX007 (ip), vehicle: Klucel (hydroxypropylcellulose) (HPC)) 89 % of control.
For `CC(=O)OCC1OC(n2cc(CBr)nn2)C(OC(C)=O)C(OC(C)=O)C1OC(C)=O` (stereo unspecified), the T/C (dose: 3.12 mg/kg/injection, schedule: Q01DX009 (ip), vehicle: Klucel (hydroxypropylcellulose) (HPC)) was 87 % of control; the T/C (dose: 6.25 mg/kg/injection, schedule: Q01DX009 (ip), vehicle: Klucel (hydroxypropylcellulose) (HPC)) is 88 % of control; the T/C (dose: 12.5 mg/kg/injection, schedule: Q01DX009 (ip), vehicle: Klucel (hydroxypropylcellulose) (HPC)) is 102 % of control; the T/C (dose: 25.0 mg/kg/injection, schedule: Q01DX009 (ip), vehicle: Klucel (hydroxypropylcellulose) (HPC)) is 106 % of control; the T/C under setting [17] is 96 % of control.
With `CC(=O)OCC1OC(n2cnc3c(=S)nc[nH]c32)C(OC(C)=O)C1OC(C)=O` (stereo unspecified), the T/C (dose: 50.0 mg/kg/injection, schedule: Q01DX009 (ip), vehicle: suspension in saline) was 100 % of control.
As for `CC(C)NCC(O)COc1cccc2ccccc12` (stereo unspecified), the T/C by setting is: under setting [12], 90 % of control; under setting [13], 96 % of control; under setting [14], 92 % of control; under setting [18], 100 % of control.
On to `CC(C)C(N)C(=O)Nc1nncs1` (stereo unspecified), for which the T/C under setting [7] is 104 % of control; the T/C under setting [8] was 106 % of control; the T/C under setting [9] is 106 % of control; the T/C under setting [10] was 115 % of control; the T/C under setting [11] was 95 % of control.
For `CC1(C)COCN1COC1CCCCC1`, the T/C runs as follows: under setting [7], 112 % of control and 118 % of control; under setting [8], 98 % of control and 111 % of control; under setting [9], 97 % of control and 115 % of control; under setting [10], 95 % of control and 99 % of control.
`OCCN1CCN(CC/C=C2/c3ccccc3Sc3ccc(Cl)cc32)CC1`: the T/C (dose: 0.78 mg/kg/injection, schedule: Q01DX009 (ip), vehicle: saline) was 102 % of control; the T/C (dose: 1.56 mg/kg/injection, schedule: Q01DX009 (ip), vehicle: saline) is 111 % of control; the T/C under setting [15] was 98 % of control; the T/C under setting [16] was 101 % of control; the T/C under setting [7] was 100 % of control.
`O=[N+]([O-])c1ccc(Sc2ccncn2)c([N+](=O)[O-])c1`: the T/C is, setting by setting: under setting [1], 91 % of control; under setting [2], 112 % of control; under setting [3], 95 % of control; under setting [4], 107 % of control.
With `O=c1ccn(C2OC(CO)C(O)C2O)c(=O)[nH]1` (stereo unspecified), the T/C under setting [14] is 109 % of control; the T/C under setting [18] is 96 % of control; the T/C (dose: 128.0 mg/kg/injection, schedule: Q01DX009 (ip), vehicle: Klucel (hydroxypropylcellulose) (HPC)) was 96 % of control; the T/C (dose: 256.0 mg/kg/injection, schedule: Q01DX009 (ip), vehicle: Klucel (hydroxypropylcellulose) (HPC)) is 110 % of control; the T/C (dose: 512.0 mg/kg/injection, schedule: Q01DX009 (ip), vehicle: Klucel (hydroxypropylcellulose) (HPC)) is 106 % of control.
Consider `C1OC1CO[C@@H]1CO[C@H]2[C@@H]1OC[C@H]2OCC1CO1` (stereo partly specified), for which the T/C was 113 % of control under setting [7], 100 % of control under setting [8], 123 % of control under setting [9] and 177 % of control under setting [10].
With `COc1cc(C(=O)c2cocc2C(=O)c2ccc3c(c2)OCO3)cc(OC)c1OC`, the T/C by setting is: under setting [17], 88 % of control; (dose: 400.0 mg/kg/injection, schedule: Q01DX009 (ip), vehicle: Klucel (hydroxypropylcellulose) (HPC)) 94 % of control.
On to `O=P1(NCCCl)OCCCN1CCCl` (stereo unspecified), for which the T/C reads like this: under setting [7], 114 % of control; under setting [8], 112 % of control; under setting [9], 163 % of control; under setting [10], 305 % of control; (dose: 108.0 mg/kg/injection, schedule: Q01DX001 (ip), vehicle: water) 112 % of control; (dose: 190.0 mg/kg/injection, schedule: Q01DX001 (ip), vehicle: saline) 283 % of control. Moreover, the T/C runs as follows: (dose: 289.0 mg/kg/injection, schedule: Q01DX001 (ip), vehicle: saline) 283 % of control; (dose: 431.0 mg/kg/injection, schedule: Q01DX001 (ip), vehicle: saline) 212 % of control; (dose: 500.0 mg/kg/injection, schedule: Q01DX001 (ip), vehicle: water) 91 % of control.
For the compound `COc1cc2oc(=O)ccc2cc1[C@@H]1OC(=O)C2(C)O[C@@H]12` (stereo partly specified), the T/C is, setting by setting: (dose: 0.31 mg/kg/injection, schedule: Q01DX009 (ip), vehicle: water) 96 % of control; (dose: 0.62 mg/kg/injection, schedule: Q01DX009 (ip), vehicle: water) 104 % of control; (dose: 1.25 mg/kg/injection, schedule: Q01DX009 (ip), vehicle: water) 101 % of control; (dose: 2.5 mg/kg/injection, schedule: Q01DX009 (ip), vehicle: water) 101 % of control; (dose: 5.0 mg/kg/injection, schedule: Q01DX009 (ip), vehicle: water) 100 % of control.
With `CC1CCC2(OC1)OC1CC3C4CCC5CC(O)CCC5(C)C4CCC3(C)C1C2C` (stereo unspecified), the T/C (dose: 20.0 mg/kg/injection, schedule: Q01DX009 (ip), vehicle: Klucel (hydroxypropylcellulose) (HPC)) was 91 % of control.
